Data published in patent US20240150298A1, “ANTIBACTERIAL COMPOUNDS” (Blacksmith Medicines, Inc., priority 2021, published 2024).
≈ marks a conversion by molar mass, not a printed value.

What was measured:
E. coli LpxC = E. coli LpxC (Escherichia coli, UniProt P0A725); assay: LpxC Binding Assay (Rapid Fire MS assay); assay type: biochemical
Method: (§1) IC50 values against E. coli and P. aeruginosa LpxC are determined using a Rapid Fire MS assay as previously described J. Med. Chem. 2012, 55, 1662-1670.

P. aeruginosa LpxC = target: T1, P. aeruginosa LpxC (Pseudomonas aeruginosa, UniProt P47205); assay: LpxC Binding Assay (Rapid Fire MS assay); assay type: biochemical
T1 sequence (P47205 1-303): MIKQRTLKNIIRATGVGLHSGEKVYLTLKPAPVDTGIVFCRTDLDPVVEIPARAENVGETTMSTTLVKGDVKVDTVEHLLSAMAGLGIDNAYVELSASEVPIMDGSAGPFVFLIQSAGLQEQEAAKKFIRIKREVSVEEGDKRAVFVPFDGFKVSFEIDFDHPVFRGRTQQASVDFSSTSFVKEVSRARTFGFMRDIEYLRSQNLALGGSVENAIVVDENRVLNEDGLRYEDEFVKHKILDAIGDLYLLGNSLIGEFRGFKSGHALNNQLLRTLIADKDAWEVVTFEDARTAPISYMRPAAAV
Method: as §1

P. aeruginosa 209 PAO1 = assay: Bacterial susceptibility testing, MIC by broth microdilution (CLSI); assay type: cell-based; details: 35° C., 18-24 h; for MIC: Pseudomonas aeruginosa, PAO1, broth microdilution, read-out: MIC P. aeruginosa 209 PAO1
Method: (§2) Minimal inhibitory concentrations (MIC) were determined by the broth microdilution method in accordance with the Clinical and Laboratory Standards Institute (CLSI) guidelines. In brief, organism suspensions were adjusted to a final inoculum between 3×10^5 and 7×10^5 colony-forming units (CFU)/mL. Drug dilutions and inocula were made in sterile, cation adjusted Mueller-Hinton Broth (Beckton Dickinson). In wells, an inoculum volume of 100 μL was mixed to 2 μL of DMSO with 2-fold serial dilutions of drug. All inoculated microdilution trays were incubated in ambient air at 35° C. for 18-24 h. Following incubation, the lowest concentration of the drug that prevented visible growth (OD600 nm<0.05) was recorded as the MIC. Performance of the assay was monitored by the use of laboratory quality-control strains and compounds with defined MIC spectrum, in accordance with CLSI guidelines.

E. coli ATCC25922 = assay: as above; assay type: cell-based; details: 35° C., 18-24 h; for MIC: Escherichia coli, ATCC25922, broth microdilution, read-out: MIC E. coli ATCC25922; for MIC E. coli ATCC25922: broth microdilution
Method: as §2

K. pneumoniae ATCC13883 = assay: as above; assay type: cell-based; details: 35° C., 18-24 h; for MIC: Klebsiella pneumoniae, ATCC13883, broth microdilution, read-out: MIC K. pneumoniae ATCC13883; for MIC K. pneumoniae ATCC13883: broth microdilution
Method: as §2

P. aeruginosa ATCC27835 = assay: as above; assay type: cell-based; details: 35° C., 18-24 h; for MIC: Pseudomonas aeruginosa, ATCC27835, broth microdilution, read-out: MIC P. aeruginosa ATCC27835
Method: as §2

E. coli LpxC, sequence (P0A725 whole entry): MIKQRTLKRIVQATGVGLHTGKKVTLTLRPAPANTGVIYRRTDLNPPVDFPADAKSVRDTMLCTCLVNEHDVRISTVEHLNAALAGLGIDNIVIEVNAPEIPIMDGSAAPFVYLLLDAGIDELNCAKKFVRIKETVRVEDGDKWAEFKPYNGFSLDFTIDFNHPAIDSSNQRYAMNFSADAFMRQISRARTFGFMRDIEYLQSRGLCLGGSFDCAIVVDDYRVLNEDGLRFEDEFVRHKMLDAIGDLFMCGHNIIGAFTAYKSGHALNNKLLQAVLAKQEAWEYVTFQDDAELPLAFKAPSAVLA

`C[C@H](O)c1nccn1C/C=C/c1ccc(-c2ccc(OC[C@H](N)CO)cc2)cc1` [Compound 3, (R)-2-amino-3-((4′-((E)-3-(2-((S)-1-hydroxyethyl)-1H-imidazol-1-yl)prop-1-en-1-yl)-[1,1′-biphenyl]-4-yl)oxy)propan-1-ol] gave an IC50 (E. coli LpxC) of 11.4 nM, an IC50 (P. aeruginosa LpxC) of 132 nM and an MIC (P. aeruginosa 209 PAO1) of 4 µg/mL (≈ 10.2 µM). It also gave an MIC (E. coli ATCC25922) of 2 µg/mL (≈ 5.08 µM), an MIC (K. pneumoniae ATCC13883) of 8 µg/mL (≈ 20.3 µM) and an MIC (P. aeruginosa ATCC27835) of 4 µg/mL (≈ 10.2 µM).

Work on `C[C@H](O)c1nccn1[C@@H](/C=C/c1ccc(-c2ccc(O[C@H]3C[C@@H]3N)cc2)cc1)CO` (single isomer, unassigned) [Compound 14] yielded an IC50 (E. coli LpxC) of 9.51 nM, an IC50 (P. aeruginosa LpxC) of 22.3 nM and an MIC (P. aeruginosa 209 PAO1) of 1 µg/mL (≈ 2.47 µM). For the same molecule, the MIC (E. coli ATCC25922) was 1 µg/mL (≈ 2.47 µM), the MIC (K. pneumoniae ATCC13883) was 2 µg/mL (≈ 4.93 µM) and the MIC (P. aeruginosa ATCC27835) was 8 µg/mL (≈ 19.7 µM).

Work on `C[C@H](O)c1nccn1C/C=C/c1ccc(-c2ccc(O[C@@H]3C[C@H]3N)cc2)cc1` (racemic) [Compound 4, (S)-1-(1-((E)-3-(4′-((trans)-2-aminocyclopropoxy)-[1,1′-biphenyl]-4-yl)allyl)-1H-imidazol-2-yl)ethan-1-ol] yielded an IC50 (E. coli LpxC) of 9.25 nM, an IC50 (P. aeruginosa LpxC) of 23.2 nM and an MIC (P. aeruginosa 209 PAO1) of 2 µg/mL (≈ 5.33 µM). For the same molecule, the MIC (E. coli ATCC25922) was 0.12 µg/mL (≈ 0.32 µM), the MIC (K. pneumoniae ATCC13883) was 0.12 µg/mL (≈ 0.32 µM) and the MIC (P. aeruginosa ATCC27835) was 4 µg/mL (≈ 10.7 µM).

With `C[C@H](O)c1nccn1[C@@H](/C=C/c1ccc(-c2ccc(OCC(N)CO)cc2)cc1)CO` (mixture of isomers) [Compound 25, (2S,E)-4-(4′-(2-amino-3-hydroxypropoxy)-[1,1′-biphenyl]-4-yl)-2-(2-((S)-1-hydroxyethyl)-1H-imidazol-1-yl)but-3-en-1-ol] the IC50 (E. coli LpxC) was 44.6 nM, the IC50 (P. aeruginosa LpxC) was 70.6 nM and the “MIC P. aeruginosa 209 PAO1” value (P. aeruginosa 209 PAO1; broth microdilution) was 2 µg/mL (≈ 4.72 µM). For the same molecule, the “MIC E. coli ATCC25922” value (E. coli ATCC25922) was 2 µg/mL (≈ 4.72 µM), the “MIC K. pneumoniae ATCC13883” value (K. pneumoniae ATCC13883) was 4 µg/mL (≈ 9.44 µM) and the “MIC P. aeruginosa ATCC27835” value (P. aeruginosa ATCC27835; broth microdilution) was 2 µg/mL (≈ 4.72 µM).

`C[C@H](O)c1nccn1C/C=C/c1ccc(-c2ccc(OC3CCN(CC(O)CO)CC3)cc2)cc1` (stereo partly drawn) [Compound 2, 3-(4-((4′-((E)-3-(2-((S)-1-hydroxyethyl)-1H-imidazol-1-yl)prop-1-en-1-yl)-[1,1′-biphenyl]-4-yl)oxy)piperidin-1-yl)propane-1,2-diol] gave an IC50 (E. coli LpxC) of 17 nM, an IC50 (P. aeruginosa LpxC) of 15.5 nM and an MIC (P. aeruginosa 209 PAO1) of 4 µg/mL (≈ 8.38 µM). It also gave an MIC (E. coli ATCC25922) of 1 µg/mL (≈ 2.09 µM), an MIC (K. pneumoniae ATCC13883) of 2 µg/mL (≈ 4.19 µM) and an MIC (P. aeruginosa ATCC27835) of 4 µg/mL (≈ 8.38 µM).

`C[C@H](O)c1nccn1[C@@H](/C=C/c1ccc(-c2ccc(OCC(CO)N(C)C)cc2)cc1)CO` (mixture of isomers) [Compound 12, (2S,E)-4-(4′-(2-(dimethylamino)-3-hydroxypropoxy)-[1,1′-biphenyl]-4-yl)-2-(2-((S)-1-hydroxyethyl)-1H-imidazol-1-yl)but-3-en-1-ol] was tested, and the IC50 (E. coli LpxC) was 82.5 nM, the IC50 (P. aeruginosa LpxC) was 69.2 nM and the MIC (P. aeruginosa 209 PAO1) was 4 µg/mL (≈ 8.86 µM). It also gave an MIC (E. coli ATCC25922) of 4 µg/mL (≈ 8.86 µM), an MIC (K. pneumoniae ATCC13883) of 16 µg/mL (≈ 35.4 µM) and an MIC (P. aeruginosa ATCC27835) of 4 µg/mL (≈ 8.86 µM).

With `C[C@H](O)c1nccn1[C@@H](/C=C/c1ccc(-c2ccc(OCC(N)CO)cc2)cc1)CO` (mixture of isomers) [Compound 8, (2S,E)-4-(4′-(2-amino-3-hydroxypropoxy)-[1,1′-biphenyl]-4-yl)-2-(2-((S)-1-hydroxyethyl)-1H-imidazol-1-yl)but-3-en-1-ol] the MIC (P. aeruginosa 209 PAO1) was 4 µg/mL (≈ 9.44 µM), the “MIC E. coli ATCC25922” value (E. coli ATCC25922) was 16 µg/mL (≈ 37.8 µM) and the “MIC K. pneumoniae ATCC13883” value (K. pneumoniae ATCC13883) was 64 µg/mL (≈ 151 µM). It also gave an MIC (P. aeruginosa ATCC27835) of 4 µg/mL (≈ 9.44 µM).

For `C[C@H](O)c1nccn1[C@@H](/C=C/c1ccc(-c2ccc(C3CC(C(=O)NCc4c[nH]cn4)C3)cc2)cc1)CO` (stereo partly drawn) [Compound 55, N-((1H-imidazol-4-yl)methyl)-3-(4′-((S,E)-4-hydroxy-3-(2-((S)-1-hydroxyethyl)-1H-imidazol-1-yl)but-1-en-1-yl)-[1,1′-biphenyl]-4-yl)cyclobutane-1-carboxamide], the MIC (P. aeruginosa 209 PAO1) was 2 µg/mL (≈ 3.91 µM), the MIC (E. coli ATCC25922) was 0.5 µg/mL (≈ 0.977 µM) and the MIC (K. pneumoniae ATCC13883) was 2 µg/mL (≈ 3.91 µM). The MIC (P. aeruginosa ATCC27835) was 2 µg/mL (≈ 3.91 µM).

In the case of `C[C@H](O)c1nccn1[C@@H](/C=C/c1ccc(-c2ccc(C3CC(NC[C@@H]4CNC(=O)O4)C3)cc2)cc1)CO` (stereo partly drawn) [Compound 46, (R)-5-(((3-(4′-((S,E)-4-hydroxy-3-(2-((S)-1-hydroxyethyl)-1H-imidazol-1-yl)but-1-en-1-yl)-[1,1′-biphenyl]-4-yl)cyclobutyl)amino)methyl) oxazolidin-2-one], the MIC (P. aeruginosa 209 PAO1) is reported as 4 µg/mL (≈ 7.96 µM), the MIC (E. coli ATCC25922) is reported as 0.5 µg/mL (≈ 0.995 µM) and the MIC (K. pneumoniae ATCC13883) is reported as 2 µg/mL (≈ 3.98 µM). It also gave an MIC (P. aeruginosa ATCC27835) of 4 µg/mL (≈ 7.96 µM).
